Measurements taken from US20240341301A1 (The Regents of the University of Michigan, priority 2023, published 2024).

Tests used:
[1] = system: HL-1 murine cardiomyocytes; test: HL-1 cardiomyocytes in HTK under normoxic or hypoxic conditions, Western blot; assay type: cell-based, mouse; details: for HO1 protein abundance / NRF2 / SOD1 protein abundance: normoxic and hypoxic conditions
Method: HL-1 murine cardiomyocytes cells (Sigma-Aldrich, SCC065) were cultured in Claycomb Medium (Sigma-Aldrich, 51800C). […] The medium was then changed to cold HTK solution and incubated in an hypoxic incubation chamber (Stem cell technologies). The chamber cold hypoxic conditions consist premixed of 1% Oxygen and 5% Carbon dioxide gas (Cryogenic gases, Detroit MI) with cell culture at 4° C. for 2 hours. After cold preservation culture, the medium was changed to 37° C. DMEM at atmospheric conditions and cells were incubated for an additional 2 hours. Cell lysates were then collected for Western blot analysis.

murine donor hearts [2] = test: Murine donor heart tissue staining and Western blot (oxidative stress, antioxidant proteins, cell death); parameters: species or system mouse; details: donor mice treated with 4-OI
Method: (§1) Male and female WT or Irg1^−/− mice (Jackson laboratories, Bar Harbor, ME) were anesthetized intraperitoneally with 80 mg/kg ketamine and 5 mg/kg xylazine, anticoagulated with heparin (2,000 U/kg iv), and the heart was rapidly exposed through a sternal incision. The aorta was cannulated and retrograde perfused in-situ with HTK solution±HDAC inhibitors. After cannulation, the heart dissected free, the left atrium was opened. For 4-OI (Cayman Chemical, 25374) experiments, donor mice were treated 4-OI (dissolved in 40% β-Cyclodextrin, 50 mg/kg intraperitoneally) or vehicle control (40% β-Cyclodextrin intraperitoneally) 2 hours prior to donor heart procurement. After dissection, the heart was stored at 4° C. with HTK or HTK with VPA for a pre-designated duration. The hearts were then mounted on a Radnoti mouse Langendorff apparatus (ADInstruments inc., Colorado Springs, CO) in constant-pressure mode (˜70 mmHg) with a modified Krebs-Henseleit buffer (KHB; in mM: 118 NaCl, 4.7 KCl, 1.25 CaCl2), 1.66 MgSO4, 24.88 NaHCO3, 1.18 KH2PO4, 5.55 glucose, and 2.0 Na-pyruvate). A balloon was placed in the LV through the left atrium and left ventricular diastolic pressure was set to ˜8 mmHg at initiation. The heart was perfused with modified Krebs-Henseleit buffer for 30 min to stabilize and then hemodynamics measurements were recorded. Myocardial temperature was maintained at 37° C. LabChart software (ADInstruments inc., Colorado Springs, CO) was used to record ventricular function, perfusion pressures, cardiac chamber temperature and myocardial temperature. After perfusing the heart for 60 minutes, the heart was removed from the ex-vivo perfusion apparatus for specimen collection. Tissue was immediately placed in liquid N2 or treated with 4% formalin.

murine donor hearts [3] = test: Murine ex-vivo heart perfusion after cold preservation; parameters: species or system mouse; details: for ex vivo donor heart contractility / ex vivo donor heart relaxation: HDAC inhibitor in HTK, 16 hours cold preservation
Method: as §1

[4] = cited from earlier work
Irg1 = Irg1 mRNA transcript expression in preserved murine donor hearts; parameters: species or system mouse; details: 16 hours preservation without reperfusion and during ex vivo perfusion
Method: as §1

H9C2 cardioblast = test: Doxorubicin-treated H9C2 cardioblast; assay type: cell-based; details: 1 μM doxorubicin
Method: FIG. 18. FIG. 4. […] The doxorubicin-induced cell death were evaluated by cleaved caspase 3 using western blot.
FIG. 19. FIG. 4. […] The 5-hmC level were detected using immunostaining.

mice = test: Doxorubicin-induced cardiotoxicity in mice; assay type: in vivo, mouse; details: 5 mg/Kg doxorubicin for 5 weeks, I.P. every 3.5 days
Method: FIG. 16. […] 6-week mice were treated with 5 mg/Kg doxorubicin for 5 weeks. […] There are improved ejection fraction, stroke volume, and increased heart and lung weight in itaconate-treated groups compared to saline-treated groups.
FIG. 17. […] 6-week mice were treated with 5 mg/Kg doxorubicin for 5 weeks.

[5] = donor mice treated 4-OI 50 mg/kg intraperitoneally 2 hours prior to procurement, 16 hours of preservation, ex vivo perfusion
[6] = compared to saline-treated groups

Row | SMILES | HO1 protein abundance [1] | NRF2 [1] | SOD1 protein abundance [1] | water solubility [4] | Irg1 transcript expression (Irg1) | ex vivo donor heart contractility (murine donor hearts [3]) | ex vivo donor heart relaxation (murine donor hearts [3]) | other results
1 | C=C(CC(=O)OCCCCCCCC)C(=O)O [4-OI, 4-octyl itaconate] | enhanced | no changes | enhanced | – | – | – | – | NRF2 nuclear translocation in cardiac tissue (murine donor hearts [2]): increased; oxidative DNA damage (8-OHdG fluorescence) (murine donor hearts [2]): reduced; cardiac contractility (murine donor hearts [3]; [5]): improved; cardiac relaxation (murine donor hearts [3]; [5]): improved
2 | CC(/C=C/C(=O)NO)=C\[C@@H](C)C(=O)c1ccc(N(C)C)cc1 [TSA, Trichostatin A] | – | – | – | poorly water soluble | increased | improved | improved | –
3 | O=C(CCCCCCC(=O)Nc1ccccc1)NO [SAHA, Suberoylanilide hydroxamic acid] | – | – | – | poorly water soluble | increased | improved | improved | –
4 | COc1cccc2c1C(=O)c1c(O)c3c(c(O)c1C2=O)C[C@@](O)(C(=O)CO)C[C@@H]3O[C@H]1C[C@H](N)[C@H](O)[C@H](C)O1 [Doxorubicin, doxorubicin] | – | – | – | – | – | – | – | 5-hmC level (H9C2 cardioblast; immunostaining): induces accumulation
5 | C=C(CC(=O)O)C(=O)O [itaconate] | enhanced | no changes | enhanced | – | – | – | – | serum cTnI level (mice): reduced; ejection fraction (mice; [6]): improved; heart and lung weight (mice; [6]): increased; stroke volume (mice; [6]): improved; cardiomyocyte apoptosis (cleaved caspase 3, western blot) (H9C2 cardioblast; 2 mM itaconate, 18 hours): reduced; doxorubicin induced 5-hmC accumulation (H9C2 cardioblast; 2 mM itaconate, immunostaining): reduce; antioxidant expression (HO1, SOD1) ([1]; itaconate 10 mM in HTK, normoxic (20% O2) and hypoxic (1% O2), 2 hours): increased; murine donor heart function (murine donor hearts [3]; after 16 hours of storage): improved
